What follows are molecules tested against Rho-associated protein kinase 2 (Homo sapiens, UniProt O75116) (assay: In Vitro Assays).
Experimental: The effectiveness of compounds of the present invention as ROCK inhibitors can be determined in a 30 μL assay containing 20 mM HEPES, pH 7.5, 20 mM MgCl2, 0.015% Brij-35, 4 mM DTT, 5 μM ATP and 1.5 μM peptide substrate (FITC-AHA-AKRRRLSSLRA-OH) (SEQ ID No. 1). Compounds were dissolved in DMSO so that the final concentration of DMSO was <2%, and the reaction was initiated with Rho kinase variants. After incubation, the reaction was terminated by the addition of EDTA and the phosphorylated and non-phosphorylated peptides separated using a LABCHIP 3000 Reader (Caliper Life Sciences). […] Compounds were tested in dose-response format, and the inhibition of kinase activity was calculated at each concentration of compound. The inhibition data were fit using a curve-fitting program to determine the IC50; i.e., the concentration of compound required to inhibit 50% of kinase activity.

Rho-associated protein kinase 2, sequence (O75116 whole entry): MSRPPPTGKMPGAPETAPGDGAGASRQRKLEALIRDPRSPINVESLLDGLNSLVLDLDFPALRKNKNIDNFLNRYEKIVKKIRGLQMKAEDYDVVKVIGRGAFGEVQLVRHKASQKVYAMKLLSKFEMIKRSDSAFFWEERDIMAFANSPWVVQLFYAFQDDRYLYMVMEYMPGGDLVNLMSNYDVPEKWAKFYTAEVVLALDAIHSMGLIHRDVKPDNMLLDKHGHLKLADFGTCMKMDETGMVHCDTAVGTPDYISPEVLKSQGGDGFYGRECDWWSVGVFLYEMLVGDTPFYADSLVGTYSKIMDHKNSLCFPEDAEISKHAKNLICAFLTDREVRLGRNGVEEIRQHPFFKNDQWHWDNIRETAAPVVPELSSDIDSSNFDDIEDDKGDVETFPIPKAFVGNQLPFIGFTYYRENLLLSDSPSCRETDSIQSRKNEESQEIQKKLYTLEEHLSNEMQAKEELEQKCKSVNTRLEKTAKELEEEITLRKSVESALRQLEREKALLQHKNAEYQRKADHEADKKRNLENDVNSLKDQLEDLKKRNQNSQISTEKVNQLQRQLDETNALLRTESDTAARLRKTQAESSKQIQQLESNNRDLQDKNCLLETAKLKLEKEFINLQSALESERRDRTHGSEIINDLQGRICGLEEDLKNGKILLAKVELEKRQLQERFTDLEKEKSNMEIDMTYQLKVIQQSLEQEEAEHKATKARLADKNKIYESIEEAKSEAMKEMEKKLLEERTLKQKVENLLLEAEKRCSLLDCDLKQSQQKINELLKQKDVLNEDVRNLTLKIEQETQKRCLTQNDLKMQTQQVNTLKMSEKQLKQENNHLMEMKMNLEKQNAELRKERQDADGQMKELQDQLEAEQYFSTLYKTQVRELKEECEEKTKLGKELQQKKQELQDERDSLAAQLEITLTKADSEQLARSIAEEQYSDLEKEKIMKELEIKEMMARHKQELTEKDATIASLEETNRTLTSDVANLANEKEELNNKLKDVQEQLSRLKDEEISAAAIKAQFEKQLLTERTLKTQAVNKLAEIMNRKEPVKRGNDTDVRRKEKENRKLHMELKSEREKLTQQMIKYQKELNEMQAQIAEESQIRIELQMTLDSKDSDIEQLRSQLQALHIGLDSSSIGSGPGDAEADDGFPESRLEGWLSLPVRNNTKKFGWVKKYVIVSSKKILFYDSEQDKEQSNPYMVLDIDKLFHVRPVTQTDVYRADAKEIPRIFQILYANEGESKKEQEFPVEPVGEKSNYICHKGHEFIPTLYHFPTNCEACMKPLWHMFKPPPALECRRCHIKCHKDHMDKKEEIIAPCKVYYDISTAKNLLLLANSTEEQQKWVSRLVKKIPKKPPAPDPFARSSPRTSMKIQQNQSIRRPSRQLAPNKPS

Point of comparison: NC(=O)c1cccnc1O[C@H]1CC2(C1)C[C@H](N1C(=O)CN(c3ccc(OC(F)(F)F)cc3)C1=O)C2 (stereo partly drawn) [US11447487, Example 86], IC50 6 nM. Against it:
- NC(=O)c1cccnc1O[C@H]1CC2(C1)C[C@H](N1C(=O)NC(CCC3CCCCC3)C1=O)C2 (stereo partly drawn) [US11447487, Example 4] — 2.2-fold higher, 13 nM
- NC(=O)c1cccnc1O[C@H]1CC2(C1)C[C@H](N1C(=O)CC(Cc3ccccc3)NC1=O)C2 (stereo partly drawn) [US11447487, Example 76] — 76-fold higher, 456 nM
